The text below walks through data of paper PMC10914734 (Signal Transduction and Targeted Therapy, 2024).

In this assay the target is Human CTSL (Homo sapiens, UniProt P07711). As to the kind of experiment: FRET-based cleavage assay, enzymatic inhibition of human CTSL. Conditions: for inhibition at 1 µM: read-out: Inhibition rate against human CTSL.

Where two headings read alike, the source gives them in different places.

Human CTSL, sequence (P07711 114-333): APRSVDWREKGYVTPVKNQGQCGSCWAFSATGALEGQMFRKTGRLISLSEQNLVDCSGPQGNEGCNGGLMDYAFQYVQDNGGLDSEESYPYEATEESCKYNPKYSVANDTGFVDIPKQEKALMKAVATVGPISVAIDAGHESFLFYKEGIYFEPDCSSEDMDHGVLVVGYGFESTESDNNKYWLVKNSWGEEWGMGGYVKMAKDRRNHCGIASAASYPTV

Consider `O=C(N[C@@H](CC1C=CC=CC1)C(=O)N[C@H](/C=C/S(=O)(=O)c1ccccc1)C[C@@H]1CCCNC1=O)c1cc2ccccc2o1` (stereo partly drawn) [14d, N-((2S)-3-(cyclohexa-2,4-dien-1-yl)-1-oxo-1-(((S,E)-1-((S)-2-oxopiperidin-3-yl)-4-(phenylsulfonyl)but-3-en-2-yl)amino)propan-2-yl)benzofuran-2-carboxamide], for which the IC50 (as a rule, the concentration that inhibits the measured activity by half) (read-out: IC50, enzymatic inhibitory activity against human CTSL, mean ± SD) is 77.2 ± 12 nM.

For the compound `O=C(N[C@@H](Cc1ccc(F)cc1)C(=O)N[C@H](/C=N/Nc1ncccn1)C[C@@H]1CCCNC1=O)c1cc2ccccc2o1` [14h, N-((S)-3-(4-fluorophenyl)-1-oxo-1-(((S,E)-1-((S)-2-oxopiperidin-3-yl)-3-(2-(pyrimidin-2-yl)hydrazineylidene)propan-2-yl)amino)propan-2-yl)benzofuran-2-carboxamide], 1600 nM corresponded to half-maximal inhibition (IC50).

In turn, `O=C(N[C@@H](Cc1ccc(F)cc1)C(=O)N[C@H](/C=C/S(=O)(=O)c1ccccc1)C[C@@H]1CCCNC1=O)c1cc2ccccc2o1` [14c, N-((S)-3-(4-fluorophenyl)-1-oxo-1-(((S,E)-1-((S)-2-oxopiperidin-3-yl)-4-(phenylsulfonyl)but-3-en-2-yl)amino)propan-2-yl)benzofuran-2-carboxamide] had an IC50 of 50.3 ± 12.1 nM.

As for `O=C(O)/C(F)=C/[C@H](C[C@@H]1CCCNC1=O)NC(=O)[C@H](CC1CCCCC1)NC(=O)c1cc2ccccc2o1` [14i, (S,Z)-4-((S)-2-(benzofuran-2-carboxamido)-3-cyclohexylpropanamido)-2-fluoro-5-((S)-2-oxopiperidin-3-yl)pent-2-enoic acid], inhibition was half-maximal at 2160 nM (IC50).

For `O=C(NC1CC1)/C(F)=C/[C@H](C[C@@H]1CCCNC1=O)NC(=O)[C@H](CC1CCCCC1)NC(=O)c1cc2ccccc2o1` [14k, N-((S)-3-cyclohexyl-1-(((S,Z)-5-(cyclopropylamino)-4-fluoro-5-oxo-1-((S)-2-oxopiperidin-3-yl)pent-3-en-2-yl)amino)-1-oxopropan-2-yl)benzofuran-2-carboxamide], the inhibition – broadly, the change of the read-out against control, counted positive when it falls – at 1 µM was found to be 37%.

`CC1(C)[C@@H]2[C@@H](C(=O)N[C@@H](C[C@@H]3CCCNC3=O)C(=O)C(=O)NCc3ccccc3)N(C(=O)c3cc4ccccc4o3)C[C@@H]21` [14m, (1R,2S,5S)-3-(benzofuran-2-carbonyl)-N-((S)-4-(benzylamino)-3,4-dioxo-1-((S)-2-oxopiperidin-3-yl)butan-2-yl)-6,6-dimethyl-3-azabicyclo[3.1.0]hexane-2-carboxamide] showed an IC50 of 1870 nM.

As for `O=C(N[C@@H](Cc1ccc(F)cc1)C(=O)N[C@H](/C=N/NC(=O)C1CCCCC1)C[C@@H]1CCCNC1=O)c1cc2ccccc2o1` [14f, N-((S)-1-(((S,E)-1-(2-(cyclohexanecarbonyl)hydrazineylidene)-3-((S)-2-oxopiperidin-3-yl)propan-2-yl)amino)-3-(4-fluorophenyl)-1-oxopropan-2-yl)benzofuran-2-carboxamide], the IC50 amounted to 8530 nM.

Take `CCOC(=O)/C(F)=C/[C@H](C[C@@H]1CCCNC1=O)NC(=O)[C@H](CC1CCCCC1)NC(=O)c1cc2ccccc2o1` [14j, Ethyl (S,Z)-4-((S)-2-(benzofuran-2-carboxamido)-3-cyclohexylpropanamido)-2-fluoro-5-((S)-2-oxopiperidin-3-yl)pent-2-enoate]: the inhibition at 1 µM was determined as 30%.

Turning to `O=C(NCc1ccccc1)C(=O)[C@H](C[C@@H]1CCCNC1=O)NC(=O)[C@@H]1[C@H]2CCC[C@H]2CN1C(=O)c1cc2ccccc2o1` [14l, (1S,3aR,6aS)-2-(benzofuran-2-carbonyl)-N-((S)-4-(benzylamino)-3,4-dioxo-1-((S)-2-oxopiperidin-3-yl)butan-2-yl)octahydrocyclopenta[c]pyrrole-1-carboxamide], the inhibition at 1 µM amounted to 12%.

For `O=C(N/N=C/[C@H](C[C@@H]1CCCNC1=O)NC(=O)[C@H](Cc1ccc(F)cc1)NC(=O)c1cc2ccccc2o1)c1ccccc1` [14e, N-((S)-1-(((S,E)-1-(2-benzoylhydrazineylidene)-3-((S)-2-oxopiperidin-3-yl)propan-2-yl)amino)-3-(4-fluorophenyl)-1-oxopropan-2-yl)benzofuran-2-carboxamide], the IC50 is 3940 nM.

In turn, `O=C(N[C@@H](Cc1ccc(F)cc1)C(=O)N[C@H](/C=N/NC(=O)C1CC1)C[C@@H]1CCCNC1=O)c1cc2ccccc2o1` [14g, N-((S)-1-(((S,E)-1-(2-(cyclopropanecarbonyl)hydrazineylidene)-3-((S)-2-oxopiperidin-3-yl)propan-2-yl)amino)-3-(4-fluorophenyl)-1-oxopropan-2-yl)benzofuran-2-carboxamide] gave an IC50 of 1320 nM.
